Assays:
HepG2 [1] = test: Cytotoxicity against human HepG2 cells assessed as cell viability up to 30 uM by MTT assay; assay type: cell-based
HepG2 [2] = test: Antihyperglycemic activity in human HepG2 cells assessed as stimulation of glucose consumption at 2 uM after 36 hrs by glucose oxidase assay in presence of high glucose condition relative to control; assay type: functional
[3] = Antihyperglycemic activity in mouse 3T3L1 cells assessed as stimulation of glucose consumption at 2 uM after 36 hrs by glucose oxidase assay in presence of high glucose condition relative to control; assay type: functional, 3T3-L1
[4] = Cytotoxicity against mouse 3T3L1 cells assessed as cell viability up to 30 uM by MTT assay; assay type: cell-based; settings: 3t3-l1

Row | SMILES | Activity (HepG2 [1]) | fold change (FC) (HepG2 [2]) | fold change (FC) [3] | Activity [4]
1 | COc1ccc(/C=C\C(=O)NCCc2ccc(O[C@@H]3O[C@@H](C)[C@H](OC(C)=O)[C@@H](O[C@@H]4O[C@H](COC(C)=O)[C@@H](O)[C@H](O)[C@H]4O)[C@H]3O[C@@H]3O[C@H](COC(C)=O)[C@@H](O)[C@H](O)[C@H]3O)cc2)cc1 | Non-toxic | 1.7 | 1.6 | Non-toxic
2 | COc1ccc(/C=C\C(=O)NCCc2ccc(O[C@@H]3O[C@@H](C)[C@H](O)[C@@H](O[C@@H]4O[C@H](CO)[C@@H](O)[C@H](O)[C@H]4O)[C@H]3O[C@@H]3O[C@H](CO)[C@@H](O)[C@H](O)[C@H]3O)cc2)cc1 | Non-toxic | 1.7 | 1.6 | Non-toxic
3 | COc1ccc(/C=C/C(=O)NCCc2ccc(O[C@@H]3O[C@@H](C)[C@H](OC(C)=O)[C@@H](O[C@@H]4O[C@H](CO)[C@@H](O)[C@H](O)[C@H]4O)[C@H]3O[C@@H]3O[C@H](COC(C)=O)[C@@H](O)[C@H](O)[C@H]3O)cc2)cc1 | Non-toxic | 1.7 | 1.6 | Non-toxic
4 | COc1ccc(/C=C\C(=O)NCCc2ccc(O[C@@H]3O[C@@H](C)[C@H](OC(C)=O)[C@@H](O[C@@H]4O[C@H](CO)[C@@H](O)[C@H](O)[C@H]4O)[C@H]3O[C@@H]3O[C@H](COC(C)=O)[C@@H](O)[C@H](O)[C@H]3O)cc2)cc1 | Non-toxic | 1.7 | 1.6 | Non-toxic
5 | COc1ccc(/C=C/C(=O)NCCc2ccc(O[C@@H]3O[C@@H](C)[C@H](OC(C)=O)[C@@H](O[C@@H]4O[C@H](CO)[C@@H](O)[C@H](O)[C@H]4O)[C@H]3O[C@@H]3O[C@H](CO)[C@@H](O)[C@H](O)[C@H]3O)cc2)cc1 | Non-toxic | 2.1 | 2.1 | Non-toxic
6 | COc1ccc(/C=C/C(=O)NCCc2ccc(O[C@@H]3O[C@@H](C)[C@H](OC(C)=O)[C@@H](O[C@@H]4O[C@H](COC(C)=O)[C@@H](O)[C@H](O)[C@H]4O)[C@H]3O[C@@H]3O[C@H](COC(C)=O)[C@@H](O)[C@H](O)[C@H]3O)cc2)cc1 | Non-toxic | 1.7 | 1.6 | Non-toxic
7 | COc1ccc(/C=C/C(=O)NCCc2ccc(O[C@@H]3O[C@@H](C)[C@H](O)[C@@H](O[C@@H]4O[C@H](CO)[C@@H](O)[C@H](O)[C@H]4O)[C@H]3O[C@@H]3O[C@H](CO)[C@@H](O)[C@H](O)[C@H]3O)cc2)cc1 | Non-toxic | 2.2 | 2.5 | Non-toxic
8 | COc1ccc(/C=C\C(=O)NCCc2ccc(O[C@@H]3O[C@@H](C)[C@H](OC(C)=O)[C@@H](O[C@@H]4O[C@H](CO)[C@@H](O)[C@H](O)[C@H]4O)[C@H]3O[C@@H]3O[C@H](CO)[C@@H](O)[C@H](O)[C@H]3O)cc2)cc1 | Non-toxic | 2.2 | 2.3 | Non-toxic
